# Experimental data as given in patent US9677063B2, “Use of a cysteine protease of plasmodium vivax” (SAMSUNG ELECTRONICS CO., LTD., priority 2009, dated 2017).
# Square brackets hold non-standard residues; d marks the D form. Peptide text beside a SMILES is read from it. * marks the point of attachment. Sta = CC(C)C[C@H](N)[C@@H](O)CC(=O)O; AMC = Cc1cc(=O)oc2cc(N*)ccc12; Isovaleryl = CC(C)CC(=O)*; Cbz = O=C(OCc1ccccc1)*
# How the values were obtained:
# VX-4 [1] = assay: Determination of pH optimum of enzyme activity against peptide substrates; assay type: biochemical, Plasmodium vivax; details: 5 μM substrate, 10 mM DTT, 37° C., pH 4.5-8.5
# Method: Enzyme activity was measured as described above.
# FIG. 3(C) relates to determination of pH optimum. […] Activity was measured at 37° C. each against Z-FR-MCA (▪), Z-LR-MCA (∘), and Z-RR-MCA (●). Maximal activity was presented as 100%. As shown in FIG. 3(C), the enzymatic activity was highest at pH 5.5. The pH-optimum was substantially different with a substrate containing a basic AA at P2 (Z-RR-MCA) with maximal activity at pH 6.5, and activity seen above pH 8.
# VX-4 [2] = assay: Substrate hydrolysis kinetics for vivapains (peptide-MCA substrates); assay type: biochemical, Plasmodium vivax
# Method: (§1) Cysteine protease activity was ascertained by the hydrolysis of benzyloxycarbonyl-L-leucyl-L-arginine 4-methyl-coumaryl-7-amide (Z-LR-MCA) (Peptide International, Louisville, Ky.). Enzyme (xVX, 30 μl; 200 nM) was added to 100 mM sodium acetate (220 μl, pH 5.5) containing 5 μM Z-LR-MCA and 10 mM DTT. The release of fluorescence was assessed at excitation and emission wavelengths of 355 nm and 460 nm with a SpectraMAX Gemini fluorometer (Molecular Devices, Sunnyvale, Calif.).
# (§2) The release of MCA was monitored over 10 min at room temperature as described above. Activities were compared as fluorescence over time. The kinetic constants Km and Vmax were determined using GraphPad software.
# [3] = test system: VX-4 mutants containing E180A; assay: Activity of mutant VX-4s against peptide substrates; assay type: biochemical, Plasmodium vivax; details: 100 mM Tris-HCl pH 7.5, 10 mM DTT, 37° C.
# Method: Site-directed mutagenesis was performed using a QuickChange II Site-Directed Mutagenesis Kit (Stratagene, Calif.). A pair of complementary primers with 39 bases was designed and a mutation to replace Ala90 to Ile (A90I), Gly154 to Ser (G154S) or Glu180 to Ala (E180A) was placed in the middle of the primers, as follows: […]
# Parental DNA inserted in pQE-30 (Qiagen, Calif.) as prepared in Example 2 was amplified using Pfu Ultra HF DNA polymerase with these primers for 16 cycles in a DNA thermal cycler (Perkin-Elmer). After digestion of the parental DNA with Dpn I, the amplified DNA with nucleotide substitution was incorporated and transformed into E. coli XL1-Blue (Stratagene). The mutations were verified by DNA sequencing. Double and triple point mutagenesis of A90I, G154S, and E180A were also done as described above. Each mutant plasmid was transformed into competent E. coli M15 (pREP4) cells (Qiagen). Each recombinant protein was individually expressed, purified and refolded as described above.
# In assays against peptide substrates, all of the mutants harboring A901 and G154S by single or multiple substitutions maintained the pH-dependent substrate specificity of wild-type VX-4. Conversely, those containing E180A lost activity against Z-RR-MCA at pH 7.5 (FIG. 4(C)). […]
# VX-2 = assay: Substrate hydrolysis kinetics for vivapains (peptide-MCA substrates); assay type: biochemical, Plasmodium vivax; details: pH 5.5, 6.5, 7.5
# Method: as §1, §2
# VX-3 = assay: as above; assay type: biochemical, Plasmodium vivax; details: pH 5.5, 6.5, 7.5
# Method: Cysteine protease activity was ascertained by the hydrolysis of benzyloxycarbonyl-L-leucyl-L-arginine 4-methyl-coumaryl-7-amide (Z-LR-MCA) (Peptide International, Louisville, Ky.). […] The release of fluorescence was assessed at excitation and emission wavelengths of 355 nm and 460 nm with a SpectraMAX Gemini fluorometer (Molecular Devices, Sunnyvale, Calif.).
# as §2
# [4] = test system: P. vivax plasmepsin 4 (PvPM4); assay: Autocatalytic processing of recombinant PvPM4 (SDS-PAGE); assay type: biochemical, Plasmodium vivax; details: pepstatin A 10 μM, 3 h at 37° C.
# Method: The reactants were analyzed by 12% SDS-PAGE.
# rVX-4 [5] = details: fully processed 28 kDa rVX-4
# Method: The purified rVX-4 was refolded and activated, and aliquots collected every 30 min were analyzed by 12% SDS-PAGE with Coomassie staining (left). The proteolytic activity of fully processed rVX-4 was analyzed by a gelatin gel-zymogram (right).
# For activity gel electrophoresis, the obtained refolded rVX-4 was mixed with SDS-PAGE sample buffer lacking 2-mercaptoethanol and subjected to 12% SDS-PAGE co-polymerized with 0.1% gelatin. The gel was washed with 2% Triton X-100 (30 min), incubated overnight with 100 mM sodium acetate (pH 5.5) containing 10 mM DTT at 37° C. and stained with Coomassie Blue.
# rVX-4 [6] = details: rVX-4 1 μM, pH 5.5, 6.5, 7.5, 30 min room temperature, substrate Z-LR-MCA
# Method: The optimal pH was assessed in 100 mM sodium acetate (pH 4.5-5.5), 100 mM sodium phosphate (pH 6.0-6.5) and 100 mM Tris-HCl (pH 7.0-8.5). The enzymes (50 nM) were added to each buffer supplemented with 10 mM DTT and 5 μM Z-L-phenylalanyl-L-arginine 4-methyl-coumaryl-7-amide (Z-FR-MCA), Z-leucyl-L-arginine-MCA (Z-LR-MCA), or Z-L-arginyl-L-arginine 4-methyl-coumaryl-7-amide (Z-RR-MCA) (Peptide International). The appropriate buffers were separately employed as controls at each pH. Enzyme activity was measured as described above. The effects of reducing agents were examined under various concentrations of GSH, and pH stability was examined at pH 5.0 and 8.0 by incubating rVX-4 at 37° C. in the appropriate buffer.
# Residual activities (%) were determined using Z-LR-MCA as a substrate.
# rVX-4 [7] = details: E-64 1 μM, in presence of pepstatin A, pH 5.0-7.0, rVX-4 50 nM, 3 h at 37° C.
# Method: Recombinant PvPMs expressed in E. coli cells were purified by Ni-NTA chromatography (Qiagen) and refolded as described above. rVX-4 (50 nM) was incubated with PvPMs (20 μg each) in 100 mM sodium acetate (pH 5.0-5.5), 100 mM sodium phosphate (pH 6.0-6.5), or 100 mM Tris-HCl (pH 7.0-7.5) supplemented with 10 mM DTT for 3 h. The experiments were also performed in the presence of E-64 (1 μM) and/or pepstatin A (10 μM, Sigma-Aldrich).
# The inventors examined possible roles for VX-4 during maturation of recombinant PvPM4 (rPvPM4), which was expressed in E. coli as above, and the results are shown in FIG. 5(A). […] Recombinant PvPM 4 (20 μg) was incubated with rVX-4 (50 nM) supplemented with 10 mM DTT at different pH values with or without pepstatin A (PepA, 10 μM) or E-64 (1 μM) for 3 h at 37° C. The reactants were analyzed by 12% SDS-PAGE.
# [8] = rVX-4, pH 7.5 compared with pH 5.5
smiles,measurement,setting,value
"Cc1cc(=O)oc2cc(NC(=O)[C@H](CCCNC(=N)N)NC(=O)[C@H](CC(C)C)NC(=O)OCc3ccccc3)ccc12 [Z-LR-MCA, benzyloxycarbonyl-L-leucyl-L-arginine 4-methyl-coumaryl-7-amide]",pH of maximal enzyme activity,VX-4 [1],5.5
same,decrease of kcat/Km at pH 7.5,VX-4 [2]; [8],5.6 fold
"Cc1cc(=O)oc2cc(NC(=O)[C@H](CCCNC(=N)N)NC(=O)[C@H](CCCNC(=N)N)NC(=O)OCc3ccccc3)ccc12 [Z-RR-MCA, benzyloxycarbonyl-L-arginyl-L-arginine 4-methyl-coumaryl-7-amide] (Cbz-Arg-Arg-{AMC})",pH of maximal enzyme activity,VX-4 [1],6.5
same,activity of E180A-containing VX-4 mutants against substrate,[3],lost activity
same,increase of kcat/Km at pH 7.5,VX-4 [2]; [8],2.6 fold
same,hydrolysis by rVX-2,VX-2,could not hydrolyze
same,hydrolysis by rVX-3,VX-3,could not hydrolyze
"Cc1cc(=O)oc2cc(NC(=O)[C@H](CCCNC(=N)N)NC(=O)[C@H](Cc3ccccc3)NC(=O)OCc3ccccc3)ccc12 [Z-FR-MCA, benzyloxycarbonyl-L-phenylalanyl-L-arginine 4-methyl-coumaryl-7-amide] (Cbz-Phe-Arg-{AMC})",pH of maximal enzyme activity,VX-4 [1],5.5
same,hydrolysis by rVX-4,VX-4 [2]; pH 7.5,not hydrolyzed
same,hydrolysis by rVX-2,VX-2,could not hydrolyze
same,hydrolysis by rVX-3,VX-3,could not hydrolyze
CC(C)CC(=O)N[C@H](C(=O)N[C@H](C(=O)N[C@@H](CC(C)C)[C@@H](O)CC(=O)N[C@@H](C)C(=O)N[C@@H](CC(C)C)[C@@H](O)CC(=O)O)C(C)C)C(C)C [pepstatin A] (Isovaleryl-VV[Sta]A[Sta]-OH),effect on autocatalytic processing of rPvPM4,[4],completely blocked
"CC(C)C[C@H](NC(=O)[C@H]1O[C@@H]1C(=O)O)C(=O)NCCCCN=C(N)N (relative stereo) [E-64, trans-epoxysuccinyl-L-leuciloamido-(4-guanidino) butane]",inhibition of protease activity in gelatin-gel electrophoresis,rVX-4 [5],completely inhibited
same,E-64 concentration needed to inhibit rVX-4 depending on pH,rVX-4 [6],increased concentrations of E-64 to inhibit rVX-4 at higher pH
same,effect on rVX-4 cleavage of rPvPM4,rVX-4 [7],specifically and significantly inhibited
